Like-named read-outs stand apart in the source and are kept apart here. One block for each molecule: values may come before it. Where a SMILES comes first, the peptide text is derived from it. [ ]: non-standard residue; d: D form. The star is where a group is joined. Sta = CC(C)C[C@H](N)[C@@H](O)CC(=O)O; Isovaleryl = CC(C)CC(=O)*
How the values were obtained:
ICE [1] = molecular target: T1, ICE (Homo sapiens, UniProt P29466); test: Protease inhibitor sensitivity of ICE: inhibitor added to THP.1 S-300, gel-based pre-IL-1β cleavage assay
T1 sequence (P29466 120-297): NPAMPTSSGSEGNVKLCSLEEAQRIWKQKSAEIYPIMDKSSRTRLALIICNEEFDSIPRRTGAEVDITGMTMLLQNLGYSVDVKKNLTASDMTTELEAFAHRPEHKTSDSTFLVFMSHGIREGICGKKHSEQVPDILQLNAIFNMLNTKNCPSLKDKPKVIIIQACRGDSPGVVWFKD
T1 sequence (P29466 317-404): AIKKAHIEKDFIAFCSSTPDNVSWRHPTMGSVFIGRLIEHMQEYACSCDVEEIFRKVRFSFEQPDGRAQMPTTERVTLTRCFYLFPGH

ICE [2] = molecular target: T1, ICE; test: Discontinuous kinetic assay of ICE with P14mer as substrate; format: biochemical; set-up: endogenous in cells; host or cells: THP.1 cells, S-300 (300,000 x g) cytosolic supernatant
Description: Proteolytic cleavage of peptide substrates from Example 12 was carried out in the following manner. Samples of peptides were prepared in dimethyl sulfoxide at a concentration of 10 mM. The enzyme used in these studies was purified through sulfopropyl cation exhange chromatography. Reaction mixtures contained approximately 0.2 mg/ml enzyme, 0.2 mM peptide, 10% sucrose, 0.1% CHAPS (3-[(3-cholamidopropyl)dimethyl-ammonio]-1-propansulfon at), 10 mM HEPES (N-2-hydroxyethylpiperazine-N'-2-ethanesulfonic Acid), pH 7.5 in a 50 ul reaction volume. After incubation at 25 degrees for variable lengths of time, reactions were quenched with the addition of 450 ul 0.1% trifluoroacetic acid. The samples were analyzed by reverse-phase high performance liquid chromatography using a Vydac C-18 column (4.6 mm x 25 cm, 5 um particle size, 300 pore size) equilibrated with 5% acetonitrile, 0.1% trifluoroacetic acid at a flow rate of 1 ml/min. Peptides were eluted using a 10 min linear gradient of 5 to 30% acetonitrile and quantitated by monitoring the column effluent at 280 nm. Under these conditions substrate and tyrosine-containing product were separated with baseline resolution in every case. The identity of cleavage products was confirmed using peptide standards.
The data in Table 3 was generated using partially purified enzyme or THP-1 […] and the gel-based cleavage assay as an indicator of ICE activity. This has been verified and extended using the P14mer assay as well as Ac-Tyr-Val-Ala-Asp-AMC as substrates. The only exception to the results of this table came when 1,10 phenanthroline (OP) was tested as an inhibitor. […] The rate constant (8 x 10-2 s-1 M-1) for inactivation is slow and it is not possible to reconstitute ICE activity by addition of ZnC12 following treatment with the chelator. […] The data is not consistent with the hypothesis that ICE is a metalloprotease.

ICE [3] = molecular target: T1, ICE; test: Mixed disulfide treatment of ICE, continuous fluorometric assay, DTT reversal and dilution stability; format: biochemical; set-up: endogenous in cells; host or cells: THP.1 cells, S-300 (300,000 x g) cytosolic supernatant
ICE [4] = molecular target: T1, ICE; test: Size exclusion chromatography (TSK G2000) of GSSG or cystamine treated ICE; set-up: endogenous in cells; host or cells: THP.1 cells, S-300 (300,000 x g) cytosolic supernatant; conditions: concentrated ICE pretreated 24 hrs, TSK G2000 column
ICE [5] = molecular target: T1, ICE
recombinant ICE = molecular target: T2, recombinant ICE (Homo sapiens, UniProt P29466); test: IL-1β precursor cleavage by lysates of COS-7 cells transfected with full-length ICE cDNA; format: biochemical; conditions: lysates of COS-7 cells transfected with ICE cDNA
T2 construct: transfection of full-length ICE cDNA, including the complete ORF of the 45 kDa ICE preprotein; expressed in transfected cells; host or cells: COS-7 cells, vector pSZ-9016 co-transfected with pX8TAT; detergent lysate
T2 sequence (P29466 120-297 limits assumed): T1 sequence (P29466 120-297)
T2 sequence (P29466 317-404 limits assumed): T1 sequence (P29466 317-404)
Description: The expression of recombinant ICE was achieved by transfection of full-length ICE cDNA, including the complete ORF of the 45 kDa ICE preprotein (Fig. 23), into a mammalian host cell. The 1.6 kb EcoRI fragment containing the full length ICE cDNA was cloned into vector pSZ-9016. 6µg of this DNA along with 0.6 ug of pX8TAT, a mammalian expression vector which places the trans-activating protein (TAT) of HIV under the control of the SV40 early promoter, was transfected into COS-7 cells by the cationic-liposome method. Cells were harvested 48 hours later and lysed in detergent buffer (25 mM HEPES pH 7, 1% Triton-X-100, 1mM EDTA, 2mM DTT, 10 ug/ml aprotinin, 10 ug/ml leupeptin, 10 ug/ml pepstatin, and 2 mM PMSF). Cell lysates were incubated with radiolabeled IL-1β precursor to measure ICE activity. Cleavage products of IL-1β were analyzed by immunoprecipitation with IL-1B antibody and fractionation on SDS polyacrylamide gels. The IL-1β precursor was cleaved to the mature, 17 kDa form by cells transfected with ICE cDNA, but not by cells transfected with the expression plasmid alone. […] The substrate specificity of the expressed ICE activity was verified by incubating lysates with an IL-1β precursor cleavage site mutant (Ala^116) which cannot be cleaved by ICE. […]

ICE [6] = molecular target: T1, ICE; test: Inhibition of ICE by mechanism based thiol protease inhibitors (diazomethyl ketone, peptide aldehydes); format: biochemical; set-up: endogenous in cells; host or cells: THP.1 cells (or human peripheral blood monocytes); cytosolic extract, ammonium sulfate, DEAE, sulfopropyl cation exchange; conditions: relative to Ac-Tyr-Val-Ala-Asp-CHO
Text: Characterization of ICE in terms of protease class was ultimately accomplished by the synthesis of two types of mechanism based thiol protease inhibitors, a diazomethyl ketone and a peptide aldehyde, both constructed from the Ac-Tyr-Val-Ala-Asp peptide. The peptidyl diazomethyl ketone (Ac-Tyr-Val-Ala-Asp-CHN2) and the peptide aldehyde (Ac-Tyr-Val-Ala-Asp-CHO) were both synthesized as described in an accompanying patent. […] However, the specificity of action on ICE has been determined by synthesis of a chemically similar peptide aldehyde, Ac-Tyr(dAla)-Val-Ala-Asp-CHO and tested for its ability to inhibit ICE in a competitive and reversible manner.

inhibition of ICE activity in the gel based cleavage assay (ICE [1]): did not inhibit | Inhibition (ICE [1]; Conc. 10 mM): - | increase in the rate at which ICE is inhibited (ICE [2]; addition of 10 mM CuSO4 to assay containing 1.0 mM OP): 17 fold | inhibition of ICE on co-treatment with two metal chelators (ICE [2]; co-treatment with EDTA and OP): did not result in an inhibition of ICE
Molecule: c1cnc2c(c1)ccc1cccnc12 [1,10-phenanthroline]
inhibition of ICE activity (ICE [2]; P14mer as substrate): can inhibit ICE activity in a time and concentration dependant manner

Inhibition (ICE [1]; Conc. 100 µM): -
Molecule: CC(C)CC(=O)N[C@H](C(=O)N[C@H](C(=O)N[C@@H](CC(C)C)[C@@H](O)CC(=O)N[C@@H](C)C(=O)N[C@@H](CC(C)C)[C@@H](O)CC(=O)O)C(C)C)C(C)C [Chloromethyl ketonePepstatin, Pepstatin] (Isovaleryl-VV[Sta]A[Sta]-OH)

Inhibition (ICE [1]; Conc. 1 mM): -
Molecule: CC(C)CC(NC(=O)C1OC1C(=O)O)C(=O)NCCCCNC(=N)N (stereo not shown) [Compound E-64]

half-time of time dependant decrease in activity (ICE [3]; 5 mM cystamine): 19 min | enzyme activity recovered (ICE [3]; addition of DTT after the inactivation plateau, 5 mM cystamine): 23% | recovery of activity (ICE [3]; concentrated ICE (3 units/ml), 5 mM cystamine, 3 day equilibration at 4 °C, then DTT): Complete recovery of activity | stabilization of ICE activity (ICE [3]; upon dilution of treated enzyme): did not appear to stabilize ICE activity | Inhibition (ICE [1]; Conc. 1 mM): + | apparent Mr of treated enzyme (ICE [4]): 22,000
Molecule: NCCSSCCN [Cystamine]

Inhibition (ICE [1]; Conc. 50 mM): -
Molecule: O=C(O)CN(CCN(CC(=O)O)CC(=O)O)CC(=O)O [EDTA]

Inhibition (ICE [1]; Conc. 10 mM): -
Molecule: O=C(O)CN(CCOCCOCCN(CC(=O)O)CC(=O)O)CC(=O)O [EGTA]

Molecule: NC(=O)CI [Iodoacetamide]
Inhibition (ICE [1]): +

Molecule: O=C(O)CI [Iodoacetic acid]
Inhibition (ICE [1]): + | rate constant for inactivation of ICE (ICE [5]): 24 M⁻¹ s⁻¹ | half-time of inhibition (ICE [5]; 100 mM iodoacetate, substrate at 1 * Km): 9.13 min | ICE inactivated (ICE [5]; 100 mM radiolabeled iodoacetate, 2.8 mM Ac-Tyr-Val-Ala-Asp-AMC (200 x Km) included): < 2%

inhibition of IL-1β precursor cleavage to the mature 17 kDa form (recombinant ICE): completely inhibited
Molecule: CC(=O)N[C@@H](Cc1ccc(O)cc1)C(=O)N[C@H](C(=O)N[C@@H](C)C(=O)N[C@H](C=O)CC(=O)O)C(C)C [L-709,049]

Molecule: CC(=O)N[C@@H](CC(C)C)C(=O)N[C@@H](CC(C)C)C(=O)N[C@H](C=O)CCCNC(=N)N [Leupeptin]
Inhibition (ICE [1]): -

Molecule: CCN1C(=O)C=CC1=O [N-ethyl maleimide]
Inhibition (ICE [1]): +

Inhibition (ICE [1]; Conc. 1 mM): +
Molecule: O=C1C=CC(=O)N1c1ccccc1 [N-phenyl maleimide]

Molecule: Cc1ccc(S(=O)(=O)N[C@@H](CCCCN)C(=O)CCl)cc1 [TLCK]
Inhibition (ICE [1]): +

Molecule: Cc1ccc(S(=O)(=O)N[C@@H](Cc2ccccc2)C(=O)CCl)cc1 [TPCK]
Inhibition (ICE [1]): +

less potent at inhibiting ICE activity (ICE [6]): 300 fold
Molecule: Ac-Tyr(dAla)-Val-Ala-Asp-CHO

Molecule: PMSF
Inhibition (ICE [1]): -

— patent publication EP0533350B1, “DNA encoding precursor interleukin 1B converting enzyme” (Merck & Co., Inc., priority 1991, dated 1993)
